What all share (type): cell-based
Assay [1] relates to Pyricularia oryzae. The experiment in a line: microbe, parasite or virus in culture. The note with it: for Observed efficacy: single active; for inhibition of growth at 4 ppm / inhibition of growth at 0.016 ppm / inhibition of growth at 0.063 ppm / inhibition of growth at 0.25 ppm / inhibition of growth at 1 ppm: Pyricularia oryzae, 168 h, read-out: Observed efficacy.
Assay [2] relates to Septoria tritici. The experiment in a line: Activity against leaf blotch on wheat caused by Septoria tritici (microtiter plate). The note with it: single active.
Assay [3] relates to Botrytis cinerea. The experiment in a line: Activity against the grey mold Botrytis cinerea in the microtiterplate test. The note with it: single active.
Setting [4] is: Botrytis cinerea, 168 h, read-out: Observed efficacy.
The mark [5] stands for this setting: Zymoseptoria tritici, 168 h, 0.25 ppm, read-out: Observed efficacy.
[6] abbreviates: Zymoseptoria tritici, 168 h, read-out: Observed efficacy.
The mark [7] stands for this setting: Zymoseptoria tritici, 168 h, 0.016 ppm, read-out: Observed efficacy.
The mark [8] stands for this setting: Zymoseptoria tritici, 168 h, 0.063 ppm, read-out: Observed efficacy.
Where [9] appears, read: Botrytis cinerea, 168 h, 0.063 ppm, read-out: Observed efficacy.

Molecules are shown by their SMILES.

On to `O=C(NC1CCC1c1ccc(Cl)cc1Cl)c1cccnc1C(F)(F)F` (stereo in doubt) [Cyclobutrifuram, cyclobutrifluram], for which the Observed efficacy in assay [1] (1 ppm) amounted to 14%; in assay [2] (0.25 ppm) it was 34%.
For `CO/C=C(/C(=O)OC)c1ccccc1Oc1cc(Oc2ccccc2C#N)ncn1` [Azoxystrobin, azoxystrobin], the Observed efficacy is given as 59% in assay [1] (0.016 ppm), 3% in assay [2] (0.016 ppm) and 43% in assay [2] (0.063 ppm).
Regarding `O=C(Nc1ccccc1-c1ccc(Cl)cc1)c1cccnc1Cl` [Boscalid, boscalid], the results for the inhibition of growth at 1 ppm in assay [3] (setting [4]) and in assay [2] (setting [6]) were 76% and 62%, respectively. Moreover, the inhibition of growth at 4 ppm in assay [1] was determined as 12%. Besides, in assay [2] (setting [5]), the inhibition of growth at 0.25 ppm worked out at 21%.
For `Cc1cc(C2=NC(C)(C)Oc3c2ccc(F)c3F)cnc1C(F)F` [Compound 1-1], the values for the inhibition of growth at 1 ppm in assay [3] (setting [4]) and in assay [1] were 33% and 65%, respectively. In addition, the inhibition of growth at 0.016 ppm in assay [1] came out at 8%; in assay [2] (setting [7]) it was 3%. The inhibition of growth at 0.063 ppm in assay [1] and in assay [2] (setting [8]) was 10% in each case. Also, the inhibition of growth at 0.25 ppm in assay [1] was determined as 21%; in assay [2] (setting [5]), 22%. In assay [2] (Zymoseptoria tritici, 168 h, 0.004 ppm, read-out: Observed efficacy), the inhibition of growth at 0.004 ppm was determined as 4%.
Turning to `Cc1cc(C2=NC(C)(C)Oc3c(F)cccc32)cnc1C(F)F` [Compound 1-2], the inhibition of growth at 1 ppm in assay [3] (setting [4]) is 19%; in assay [1], 31%; in assay [2] (setting [6]) it was 0%. Besides, the inhibition of growth at 0.063 ppm in assay [1] amounted to 4%. Further, the figures for the inhibition of growth at 0.25 ppm in assay [1] and in assay [2] (setting [5]) were 15% and 0%, respectively.
`COc1ccc2c(c1F)OC(C)(C)N=C2c1cnc(C(F)F)c(C)c1` [Compound 1-3]: the inhibition of growth at 1 ppm in assay [3] (setting [4]) was determined as 12%; in assay [1], 12%; in assay [2] (setting [6]) it was 18%. Moreover, the inhibition of growth at 0.063 ppm in assay [1] came out at 0%; in assay [2] (setting [8]), 21%. Also, in assay [2] (setting [5]), the inhibition of growth at 0.25 ppm turned out to be 20%.
On to `CC1COC(Cn2cncn2)(c2ccc(Oc3ccc(Cl)cc3)cc2Cl)O1` (stereo not drawn) [Difenoconazol, difenoconazole], for which the inhibition of growth at 0.063 ppm in assay [3] (setting [9]) came to 8%.
In assay [3] (0.25 ppm), `CNC(=O)/C(=N/OC)c1ccccc1COc1cc(C)ccc1C` [Dimoxystrobin, dimoxystrobin] displayed an Observed efficacy of 2%.
On to `COc1ccnc(C(=O)N[C@@H](C)C(=O)O[C@@H](C)C(c2ccc(F)cc2)c2ccc(F)cc2)c1OC(C)=O` [Florylpicoxamid, florylpicoxamid], for which the Observed efficacy in assay [1] (0.004 ppm) came to 28%; in assay [1] (0.016 ppm), 70%; in assay [2] (0.016 ppm), 47%.
For the compound `O=[N+]([O-])c1cc(C(F)(F)F)c(Cl)c([N+](=O)[O-])c1Nc1ncc(C(F)(F)F)cc1Cl` [Fluazinam, fluazinam], the inhibition of growth at 0.063 ppm amounted to 19% in assay [1] and 5% in assay [2] (setting [8]).
In the case of `N#Cc1c[nH]cc1-c1cccc2c1OC(F)(F)O2` [Fludioxonil, fludioxonil], in assay [1], the inhibition of growth at 0.016 ppm is 14%, the inhibition of growth at 0.063 ppm was found to be 45% and the inhibition of growth at 0.25 ppm was determined as 69%. Besides, in assay [2] (setting [7]), the inhibition of growth at 0.016 ppm is 1%.
As for `O=C(NCCc1ncc(C(F)(F)F)cc1Cl)c1ccccc1C(F)(F)F` [Fluopyram, fluopyram], the inhibition of growth at 0.25 ppm in assay [2] (setting [5]) amounted to 33%.
For `Cn1cc(C(=O)Nc2ccccc2-c2cc(F)c(F)c(F)c2)c(C(F)F)n1` [Fluxapyroxad, fluxapyroxad], the Observed efficacy in assay [3] (0.063 ppm) is reported as 29%; in assay [2] (0.063 ppm) it was 27%.
As to `CC(C)NC(=O)N1CC(=O)N(c2cc(Cl)cc(Cl)c2)C1=O` [Iprodion, iprodione], the inhibition of growth at 1 ppm is 52% in assay [3] (setting [4]) and 9% in assay [2] (setting [6]). For the same compound, in assay [1], the inhibition of growth at 4 ppm stood at 42%.
As to `Cc1cc(OC(C)C)ccc1C(=O)C(C)(C)NC(=O)c1sccc1C` [Isofetamid, isofetamid], the results for the Observed efficacy in assay [1] (4 ppm) and in assay [2] (0.25 ppm) were 15% and 45%, respectively.
Turning to `Cc1cccc(-n2nnn(C)c2=O)c1COc1ccn(-c2ccc(Cl)cc2)n1` [Methyltetraprol, metyltetraprole], the Observed efficacy in assay [1] (0.016 ppm) is given as 38%; in assay [2] (0.016 ppm) it was 51%.
As for `CC(C)CC(C)c1sccc1NC(=O)c1cn(C)nc1C(F)(F)F` (stereo not drawn) [Penthiopyrad, penthiopyrad], the inhibition of growth at 0.063 ppm in assay [3] (setting [9]) came to 10%; in assay [2] (setting [8]) it was 33%.
Turning to `OC(Cc1ccccc1Cl)(Cn1nc[nH]c1=S)C1(Cl)CC1` (stereo not drawn) [Prothioconazol, prothioconazole], the inhibition of growth at 1 ppm in assay [3] (setting [4]) came out at 22%; in assay [1], 15%. The inhibition of growth at 4 ppm in assay [3] (Botrytis cinerea, 168 h, 4 ppm, read-out: Observed efficacy) was 58%. Also, the inhibition of growth at 0.25 ppm in assay [2] (setting [5]) was determined as 66%.
With `CON(C(=O)c1cn(C)nc1C(F)F)C(C)Cc1c(Cl)cc(Cl)cc1Cl` (stereo not drawn) [Pydiflumetofen, pydiflumetofen], the Observed efficacy in assay [3] (0.063 ppm) turned out to be 15%; in assay [2] (0.016 ppm) it was 67%.
Consider `CC(C)(C)C(O)(CCc1ccc(Cl)cc1)Cn1cncn1` (stereo not drawn) [Tebuconazol, tebuconazole], for which the inhibition of growth at 0.25 ppm in assay [3] (Botrytis cinerea, 168 h, 0.25 ppm, read-out: Observed efficacy) stood at 38%; in assay [1], 10%; in assay [2] (setting [5]), 50%.
Regarding `Cc1ccc(NC(=O)c2snnc2C)cc1Cl` [Tiadinil, tiadinil], the inhibition of growth at 4 ppm in assay [2] (Zymoseptoria tritici, 168 h, 4 ppm, read-out: Observed efficacy) was 10%.

The values are drawn from patent US20250338849A1 (priority 2022, published 2025).
